Laboratory results taken from US11827917B1, “Methods for the conversion of fermentable sugars to ethanol” (Colorado State University Research Foundation, priority 2020, dated 2023).
Entries after “also recorded” stand apart in the source; their conditions may differ. Marks after values point to notes of the source that are not given here.

Experiments:
Type in all cases: cell-based, Saccharomyces cerevisiae
S. cerevisiae JAY 270 [1] = experiment: Growth test in liquid YNB medium, low/high nitrogen, serum bottles; conditions: 40, 200, 1000 mg/L; low and high nitrogen media
Description: A second set of tests was performed in a defined liquid medium, Yeast Nitrogen Base with Glucose (YNB), containing (NH4)2SO4 at either low (1 mM) or high (10 mM) nitrogen content. […] All serum bottles were incubated in a shaker at 30° C. and 150 RPM. Each treatment was performed in biological duplicate. Samples were collected at 0, 5, and 10 hours.

S. cerevisiae JAY 270 [2] = experiment: Screening of growth in 24-well plates on YPDA; conditions: for Cell growth score (colony size): YPDA, 30° C., 24 h
Description: Procedure: An inoculum culture of S. cerevisiae JAY 270 was grown in 100 mL of yeast extract-peptone-dextrose (YPD) medium (10 g/L yeast extract, 20 g/L peptone, 20 g/L glucose) in 200-mL serum bottles overnight in a shaker at 30° C. and 200 rpm. The cells were collected by centrifuging 10 min at 4000×g and 4° C. To wash off the medium residue, the cell pellet was resuspended in 30 mL of sterile 0.8% (w/v) NaCl solution and centrifuged at 4000×g for 10 min. The cell pellet was washed twice. Finally, the cell pellet was resuspended and diluted in 0.8% (w/v) NaCl to achieve cell concentrations of OD600=0.02 and 0.2.
The eight compounds were added in YPDA separately at 0.03%, 0.05%, 0.1%, and 0.2% (w/v). The standard control treatment contained only YPDA medium without addition of these compounds. Since the TrpOH and TyrOH stock solutions were dissolved in DMSO, the controls for those tests were YPDA with the same concentration of DMSO. A 3-mL aliquot of YPDA medium with or without the test compounds were loaded in each well of the 24-well plate.
Ten μL of the prepared S. cerevisiae JAY 270 cell suspension at OD600=0.02 or 0.2 was loaded onto the YPDA medium in each well of the 24-well plates. Then the plates were sealed with Parafilm and incubated at 30° C. for 24 h. There were four biological replicates for each treatment.
Yeast cell growth was evaluated by visual observation of the colony size in the well and scored as 0, +, ++, and +++.

S. cerevisiae JAY 270 [3] = experiment: Serum-bottle cultivation in YPD: biomass, glycerol, ethanol yields
Description: Procedure: Cultivations in serum bottles were used to determine the effect of the best-performing screened chemicals on the ethanol yield. S. cerevisiae JAY 270 was pre-cultured in 100 mL of YPD medium in 200-mL serum bottles overnight in a shaker at 30° C. and 200 rpm. The precultured yeast cells were collected and washed twice as described above. The cell pellet was resuspended in about 10 mL of 0.8% (w/v) NaCl and the cell concentration was estimated as OD600. TyrOH, PheOH, and TrpOH were added to 30 mL of YPD medium in 100-mL serum bottles at 0.05% and 0.2% respectively. The same amount of DMSO was added to YPD medium to serve as the control for TrpOH and TyrOH treatments. The bottles were inoculated with the prepared yeast cells to obtain an initial cell concentration of OD600=0.2. The serum bottles were sealed and cultured in a shaker at 30° C. and 200 rpm for 24 h. Each condition had three biological replicates.
(§1) Analytical methods: Cell growth was evaluated by monitoring OD600 and cell dry mass concentration. For dry mass measurements, 1.0 mL of culture was transferred to a pre-dried and pre-weighed 2-mL centrifuge tube. The tubes were centrifuged for 10 min at 14000 rpm using a microcentrifuge, and then the cell pellets were dried in an oven for 3 days at 65° C. The cell dry mass was determined by subtracting the initial tube mass from the dried mass of tube with cells. The concentrations of glucose, ethanol, and glycerol were measured via HPLC (Shimadzu LC20A series) outfitted with a refractive index detector and using an Aminex HPX-87H (300×7.8 mm) organic acid column and Cation H+ guard cartridge (Bio Rad Laboratories, Hercules, CA). The column was maintained at 65° C. and the mobile phase was 5 mM sulfuric acid with a flow rate of 0.6 mL/min. Standard compound solutions were used to calibrate the HPLC. Each sample was analyzed three times by HPLC.

S. cerevisiae JAY 238 = experiment: Serum-bottle cultivation in YPD, different yeast strains; conditions: 0.2%
Description: as §1
Procedure: Seven yeast strains (S. cerevisiae ATCC 26603, S. cerevisiae JAY 238, S. cerevisiae JAY 240, S. cerevisiae JAY 241, S. paradoxus JAY 1502, S. kudriavzezii JAY 1503, and S. mikatae JAY 1504) were pre-cultured in 30 mL of YPD medium in 100 mL serum bottle overnight in a shaker at 30° C. and 200 rpm. The precultured yeast cells of each strains were collected and washed twice. Finally, the cell pellet was resuspended in about 10 mL 0.8% (w/v) NaCl and the OD600 measured. TyrOH, PheOH, and TrpOH were added to 30 mL of YPD medium in 100-mL serum bottles at 0.2% (w/v) respectively. The same amount of DMSO was added in YPD medium and served as control to the TrpOH and TyrOH treatments. The prepared yeast cells were added to obtain the initial cell concentration at OD600=0.2. The serum bottles were sealed and cultured in a shaker at 30° C. and 200 rpm for 24 h. There were three biological replicates for each treatment.

[4] = 0.05% (w/v), YPD, serum bottles
[5] = S. cerevisiae JAY 238, YPD (Table 9B)

In the case of OCCc1ccccc1 [PheOH, 2-phenylethanol], the “Inhibitory effect on yeast cell growth in liquid YNB medium” value (S. cerevisiae JAY 270 [1]) is reported as “inhibitory at 1000 mg/L in both media, but not at 40 and 200 mg/L”, the “Cell growth score (colony size)” value (S. cerevisiae JAY 270 [2]; 0.03% (w/v)) is reported as “+++” and the “Cell growth score (colony size)” value (S. cerevisiae JAY 270 [2]; 0.05% (w/v)) is reported as “+++”. For the same compound, the “Cell growth score (colony size)” value (S. cerevisiae JAY 270 [2]; 0.10% (w/v)) was “++”, the “Cell growth score (colony size)” value (S. cerevisiae JAY 270 [2]; 0.20% (w/v)) was “+” and the “Concentration at which cell growth was reduced in the plate assay” value (S. cerevisiae JAY 270 [2]; molar equivalent of the % w/v value) was 8.2 mM. The “Effect on cell growth in the plate assay (words)” value (S. cerevisiae JAY 270 [2]; tested concentrations, 24-well plates) was “inhibited growth; also recorded: reduced the growth”, the “Cell dry mass concentration, % of the control” value (S. cerevisiae JAY 270 [3]; 0.05%) was 85% and the Biomass Yield (S. cerevisiae JAY 270 [3]; [4]) was 0.088 + 0.001 g/g. The “Biomass yield % change vs. control” value (S. cerevisiae JAY 270 [3]; [4]) was −11* %, the EtOH yield (S. cerevisiae JAY 270 [3]; [4]) was 0.40 ± 0.00 g/g and the “EtOH yield % change vs. control” value (S. cerevisiae JAY 270 [3]; [4]) was 3.7%. The Glycerol yield (S. cerevisiae JAY 270 [3]; [4]) was 0.031 ± 0.001 g/g, the “Glycerol yield % change vs. control” value (S. cerevisiae JAY 270 [3]; [4]) was −4.6% and the “Biomass yield vs. reference” value (S. cerevisiae JAY 270 [3]; 0.05%, YPD, serum bottles) was −10.8%. For the same compound, the Ethanol yield (S. cerevisiae JAY 270 [3]; 0.05%, YPD, serum bottles) was 0.40 ± 0.00 g/g, the “Ethanol yield vs. reference” value (S. cerevisiae JAY 270 [3]; 0.05%, YPD, serum bottles) was 3.7% and the Glycerol yield (S. cerevisiae JAY 270 [3]; 0.05%, YPD, serum bottles) was 0.031 ± 0.001 g/g. The “Glycerol yield vs. reference” value (S. cerevisiae JAY 270 [3]; 0.05%, YPD, serum bottles) was −4.6%, the OD600 (S. cerevisiae JAY 270 [3]; 0.05%, YPD, serum bottles) was 3.35 and the “Cell dry mass concentration, % of the control” value (S. cerevisiae JAY 270 [3]; 0.2%) was 71%. The “Effect on yeast cell growth” value (S. cerevisiae JAY 270 [3]; 0.2%) was “reduced yeast cell growth”, the Biomass Yield (S. cerevisiae JAY 270 [3]; 0.2% (w/v), YPD, serum bottles) was 0.064 + 0.002 g/g and the “Biomass yield % change vs. control” value (S. cerevisiae JAY 270 [3]; 0.2% (w/v), YPD, serum bottles) was −35* %. For the same compound, the EtOH yield (S. cerevisiae JAY 270 [3]; 0.2% (w/v), YPD, serum bottles) was 0.41 ± 0.01 g/g, the “EtOH yield % change vs. control” value (S. cerevisiae JAY 270 [3]; 0.2% (w/v), YPD, serum bottles) was 6.2* % and the Glycerol yield (S. cerevisiae JAY 270 [3]; 0.2% (w/v), YPD, serum bottles) was 0.025 ± 0.001 g/g. For the same compound, the “Glycerol yield % change vs. control” value (S. cerevisiae JAY 270 [3]; 0.2% (w/v), YPD, serum bottles) was −25* %, the “Biomass yield vs. reference” value (S. cerevisiae JAY 270 [3]; 0.2%, YPD, serum bottles) was −35.3% and the “Effect on ethanol yield” value (S. cerevisiae JAY 270 [3]; 0.2%, YPD, serum bottles) was “increased the ethanol yield significantly”. The Ethanol yield (S. cerevisiae JAY 270 [3]; 0.2%, YPD, serum bottles) was 0.41 ± 0.01 g/g, the “Ethanol yield vs. reference” value (S. cerevisiae JAY 270 [3]; 0.2%, YPD, serum bottles) was 6.2% and the Glycerol yield (S. cerevisiae JAY 270 [3]; 0.2%, YPD, serum bottles) was 0.025 ± 0.001 g/g. For the same compound, the “Glycerol yield vs. reference” value (S. cerevisiae JAY 270 [3]; 0.2%, YPD, serum bottles) was −25.1%, the OD600 (S. cerevisiae JAY 270 [3]; 0.2%, YPD, serum bottles) was 2.44 and the “Biomass Yield” value (S. cerevisiae JAY 238; S. cerevisiae JAY 238) was 0.059 ± 0.000 g/g. The “Biomass yield % change vs. control” value (S. cerevisiae JAY 238; S. cerevisiae JAY 238) was −19* %, the “EtOH yield” value (S. cerevisiae JAY 238; S. cerevisiae JAY 238) was 0.472 ± 0.017 g/g and the “Glycerol yield” value (S. cerevisiae JAY 238; S. cerevisiae JAY 238) was 0.041 ± 0.002 g/g. For the same compound, the “Glycerol yield % change vs. control” value (S. cerevisiae JAY 238; S. cerevisiae JAY 238) was −0.2%, the DCW (S. cerevisiae JAY 238; S. cerevisiae JAY 238, YPD) was 2.00 mg and the “DCW Δ vs. ref” value (S. cerevisiae JAY 238; S. cerevisiae JAY 238, YPD) was 78.4%. For the same compound, the “OD600 Δ vs. ref” value (S. cerevisiae JAY 238; S. cerevisiae JAY 238, YPD) was 65.9%, the “Biomass Yield” value (S. cerevisiae JAY 238; [5]) was 0.059 + 0.000 g/g and the “Biomass yield Δ vs. ref” value (S. cerevisiae JAY 238; [5]) was −18.9%. The Ethanol yield (S. cerevisiae JAY 238; [5]) was 0.472 ± 0.017 g/g, the “Ethanol yield Δ vs. ref” value (S. cerevisiae JAY 238; [5]) was 9.3% and the Glycerol yield (S. cerevisiae JAY 238; [5]) was 0.041 ± 0.002 g/g. The “Glycerol yield Δ vs. ref” value (S. cerevisiae JAY 238; [5]) was −0.22%.
